Measured values as given in US12280026B2, “Use of repirinast in the prophylaxis or treatment of renal fibrosis or kidney disease” (ALGERNON PHARMACEUTICALS INC., priority 2018, dated 2025).
“Also recorded” adds a separate entry of the source.

Tested on: C57BL/6 mice with UUO surgical ligation
Experiment: Example 1: UUO mice, kidney weight evaluation (ligated vs non-ligated kidney)
Assay type: in vivo
Details: doses of Table 1 (Telmisartan 5 mg/kg)
Protocol: Male 9-12 week old C57BL/6 mice of 23-25 grams body weight were used. All mice were acclimated for a minimum of 5 days prior to the start of the study and housed individually in microisolators throughout the study in a 12:12 light-dark cycle on a standard maintenance mouse chow diet (Harlan Teklad 2018) with food and water given ad libitum. Prior to surgery, all mice were weighed for baseline body weight.
The UUO surgical intervention was performed according to previously described methods known in the art (Le Meur Y et al., Macrophage accumulation at a site of renal inflammation is dependent on the M-CSF/c-fms pathway, J Leukocyte Biol., 72:530-537; 2002). […]
The dose selected for the animal studies was determined by taking the maximum known human daily dose, dividing by the average weight of an adult (˜60-70 kg) to get a human mg/kg dose. […]
Kidney weight: The UUO was then examined in situ to ensure that the surgical ligation ties remained patent. […] Weights of both kidneys were measured using a laboratory balance.
Kidney Weight Evaluation: Kidney weight indicating, which indicates functional and pathological changes in the kidney, was evaluated by measuring the weight of both the ligated (UUO) and non-ligated kidneys as previously described. […]

`CCCc1nc2c(C)cc(-c3nc4ccccc4n3C)cc2n1Cc1ccc(-c2ccccc2C(=O)O)cc1` [Telmisartan, 2-(4-{[4-Methyl-6-(1-methyl-1H-1,3-benzodiazol-2-yl)-2-propyl-1H-1,3-benzodiazol-1-yl]methyl}phenyl)benzoic acid] was tested, and the “Disparity in weight between ligated and non-ligated kidney, in words” value was “greatest numerical reduction in the disparity between the two kidneys; also recorded: appeared to reduce the disparity in kidney size”.
